Laboratory results: patent US8747900B2, “Dosage form with improved release of cefuroximaxetil” (Gruenenthal GmbH, priority 2005, dated 2014)
Blank lines part the entries; values can stand above or below the compound they belong to.

Columns and labels:
[1] = Solubility / saturation solubility of cefuroximaxetil; format: physicochemical
[2] = Relative stability of binary mixtures of the modifications in water; format: physicochemical
[3] = Storage stability of the crystalline modification at elevated temperature; format: physicochemical
Experimental: The crystalline modification of cefuroximaxetil according to the invention is stable in storage. […] Even after storage for 2 months at 40° C. and 75% rel. atmospheric humidity, the content of the comparatively easily formed Δ^3-degradation product is still below 1.0 wt. %, which is indicative of excellent stability of the modification according to the invention.

[4] = cited from earlier work; for Solubility of the active ingredient (dissolved): after 45 minutes, standard method USP 23 page 316

SMILES: CO/N=C(\C(=O)N[C@@H]1C(=O)N2C(C(=O)OC(C)OC(C)=O)=C(COC(N)=O)CS[C@H]12)c1ccco1 (stereo partly drawn) [Cefuroximaxetil, 1-acetoxyethyl ester of cefuroxime, i.e. of (6R,7R)-3-carbamoyloxymethyl-7-[(Z)-2-(fur-2-yl)-2-methoxyiminoacetamido]ceph-3-em-4-carboxylic acid]
Saturation solubility ([1]; in the dissolution medium (1000 ml), artificial gastric juice + Tween 80): 600 mg
Solubility ([1]; largely pH-independent): approx. 0.5 mg/ml

Stability relative to the α-, β- and γ-modification [2]: stabler
Change to the composition, chemically (decomposition products) or physically (solubility, X-ray diffractogram) ([3]; after storage at elevated temperature): no significant change
Content of Δ^3-degradation product ([3]; after storage for 2 months at 40° C. and 75% rel. atmospheric humidity): below 1.0 wt. %
SMILES: CO/N=C(\C(=O)N[C@@H]1C(=O)N2C(C(=O)OC(C)OC(C)=O)=C(COC(N)=O)CS[C@H]12)c1ccco1 (some centres unmarked) [δ-modification, cefuroximaxetil]

SMILES: CO/N=C(\C(=O)N[C@@H]1C(=O)N2C(C(=O)OC(C)OC(C)=O)=C(COC(N)=O)CS[C@H]12)c1ccco1 (stereo partly drawn) [β-modification, cefuroximaxetil]
Solubility of the active ingredient (dissolved) [4]: over 40%

SMILES: CO/N=C(\C(=O)N[C@@H]1C(=O)N2C(C(=O)OC(C)OC(C)=O)=C(COC(N)=O)CS[C@H]12)c1ccco1 (some centres unmarked) [γ-modification, cefuroximaxetil]
Solubility of the active ingredient (dissolved) [4]: 73.0%

SMILES: CO/N=C(\C(=O)N[C@@H]1C(=O)N2C(C(=O)OC(C)OC(C)=O)=C(COC(N)=O)CS[C@H]12)c1ccco1 (stereo partly drawn) [α-modification, cefuroximaxetil]
Solubility when tested according to USP 23 ([4]; minimum: 60% in 15 minutes, 75% within 45 minutes): does not achieve the specified minimum solubility
